The text below walks through data of patent US7022732B2, “Propanolamine derivative having 1, 4-benzodioxane ring” (Nisshin Pharma Inc., priority 2001, dated 2006).

For the test, the target named is T1, human β3 adrenergic receptor (Homo sapiens, UniProt P13945).
T1 construct: expressed in transfected cells; host or cells: CHO cells (clone G4-I, kept under Geneticin selection)
Briefly: cAMP production in G4-I cells, stimulating activity of human β3 adrenergic receptor (cAMP EIA). The class given is cell-based. As to conditions: cAMP production relative to isoproterenol maximum, CHO cells (G4-I) expressing human β3 receptor. Here is the method:
Representative compounds of the invention were assayed for their stimulating activity of human β3 adrenergic receptor. In the tests, there was used G4-I cloned with CHO cells expressing human β3 adrenergic receptor genes. A cAMP EIA kit for use was available from Amersham Farmacia.
G4-I was incubated under the atmosphere of 5% CO2 at 37° C. in a Han's F12 Nutrient Mixture medium containing 10% fetal calf serum, penicillin 100 U/mL, streptomycin 100 μg/mL, amphotericin B 25 μg/mL and Geneticin 400 μg/mL. When the reaction for cAMP production was carried out, frozen cells stocked were incubated for 3 days and then treated with trypsin to prepare a cell suspension. The cell suspension was diluted to 2×10^5 cells/mL with the medium. Then 1 ml each of the diluted suspension was dispensed into a 12-well plate dish.
The cells cultured for 24 hours were used to carry out the cAMP production reaction.
The culture medium was removed from the cells incubated on the 12-well plate dish. The cells were washed twice with 1 mL of Wash Buffer previously warmed to 37° C. and then 0.9 mL of Reaction Buffer was added. Cultivation was carried out on a water bath at 37° C. for 5 minutes and then 0.1 mL of an aqueous solution of the test compound or isoproterenol was added thereto. Reaction was further allowed to take place at 37° C. for 30 minutes. The reaction solution was taken out and then washed twice with 2 mL of D-PBS(-) followed by addition of 1 mL of the Extraction Buffer. The extraction procedure was performed using a plate mixer at 4° C. for 1 hour. The extract was stored at −20° C.
The cell extract frozen at −20° C. was thawed at 4° C. The cAMP of the extract in each well was assayed by means of a cAMP-EIA kit manufactured by Amersham Farmacia. Assay was performed in accordance with the manual attached to the kit. Adsorbance in a 96-well plate was determined using a microplate reader (Model Spectra MAX 250) manufactured by Molecular Device.
The protein amount of the above cell extract was assayed according to the dye-binding method using a CBB solution for quantitative determination of protein (available from Bio-Rad). Bovine serum albumin was used as a protein standard, and absorbance was determined using the above microplate reader (Model Spectra MAX 250) manufactured by Molecular Device.
Determination of cAMP and protein amounts was carried out in duplicate and mean values were adopted as measured values. The cAMP production amount of each sample was represented in terms of a numerical value of the cAMP amount (pmol) divided by cell protein amount (mg) (pmol/mg protein). […] For each sample, cAMP production amount was calculated and a relative cAMP production amount to the maximum cAMP production amount of isoproterenol (% of isoproterenol Max) was determined.
(In general: cAMP levels reflect the balance of adenylyl cyclase and phosphodiesterase activity.)

T1 sequence (P13945 whole entry): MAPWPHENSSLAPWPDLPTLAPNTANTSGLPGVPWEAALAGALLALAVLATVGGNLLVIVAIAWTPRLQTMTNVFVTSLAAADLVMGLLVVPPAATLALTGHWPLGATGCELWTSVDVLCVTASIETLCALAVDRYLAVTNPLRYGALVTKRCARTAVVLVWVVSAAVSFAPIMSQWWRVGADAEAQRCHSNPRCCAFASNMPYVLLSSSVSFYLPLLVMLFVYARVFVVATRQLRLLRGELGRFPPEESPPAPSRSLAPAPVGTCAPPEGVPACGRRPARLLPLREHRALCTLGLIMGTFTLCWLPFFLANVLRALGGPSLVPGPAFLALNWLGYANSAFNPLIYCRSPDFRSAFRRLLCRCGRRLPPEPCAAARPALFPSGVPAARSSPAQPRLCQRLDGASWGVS

In the case of `C[C@H](Cc1ccc2c(c1)OC[C@H](C(=O)O)O2)NC[C@H](O)COc1ccc(O)c(NS(C)(=O)=O)c1` [Example 2, 6-[2-(R)-[2-(S)-Hydroxy-3-(4-hydroxy-3-methanesulfonamidophenoxy)propylamino]propyl]-2,3-dihydro-1,4-benzodioxine-2-(R)-carboxylic acid], the “Intrinsic Activity (% of ISP)” value (test compound 1 μM) is 76 % of ISP.

On to `CS(=O)(=O)Nc1cc(OC[C@@H](O)CNCCc2ccc3c(c2)OC[C@H](C(=O)O)O3)ccc1O` [Example 4, 6-[2-[2-(S)-Hydroxy-3-(4-hydroxy-3-methanesulfonamido-phenoxy]propylamino]ethyl]-2,3-dihydro-1,4-benzodioxine-2-(R)-carboxylic acid], for which, under “test compound 1 μM”, the “Intrinsic Activity (% of ISP)” value is listed as 98 % of ISP. For the compound `COc1cc(O)ccc1OC[C@@H](O)CN[C@H](C)Cc1ccc2c(c1)OC[C@H](C(=O)O)O2` [Example 16, 6-[2-(R)-[2-(S)-Hydroxy-3-(4-hydroxy-2-methoxyphenoxy)-propylamino]propyl]-2,3-dihydro-1,4-benzodioxine-2-(R)-carboxylic acid], under “test compound 1 μM”, the “Intrinsic Activity (% of ISP)” value is 61 % of ISP. Turning to `C[C@H](Cc1ccc2c(c1)OC[C@H](C(=O)O)O2)NC[C@H](O)COc1ccc(O)cc1` [Example 12, 6-[2-(R)-[2-(S)-Hydroxy-3-(4-hydroxyphenoxy)propylamino]-propyl]-2,3-dihydro-1,4-benzodioxine-2-(R)-carboxylic acid], where the note is “test compound 10 μM”, the “Intrinsic Activity (% of ISP)” value is reported as 73 % of ISP.
